Test [1] addresses Human MER (residues 528-999) (Homo sapiens (Human), UniProt Q12866). Briefly: Human Mer kinase assay, HTRF KinEase (Example C-2). The class given is biochemical. Put shortly:
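Recombinant MER 528-999 (1 ng/well) in buffer with 5 mM MgCl2 and 1 mM DTT was reacted with biotinylated peptide and ATP at Km (40 μM) for 60 min at room temperature. EDTA stop with SA-XL665 and Eu3+ TK antibody, then 665/620 nm HTRF read; IC50 from 4-parameter fit.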
In general terms: Time-resolved FRET reads energy transfer from a long-lived donor to a nearby acceptor.

For test [2], the target named is Mer (phospho-Mer, MERTK-transfected 293A cells) (Homo sapiens (Human), UniProt Q12866). In words: Mer autophosphorylation ELISA in transient transfected 293A cells (Example H). In kind it is cell-based. The following applies: cellular activity; Mer autophosphorylation ELISA in transient transfected 293A cells. In a few lines:
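IC50 from phospho-Mer ELISA of MERTK-transfected 293A cell lysates after 1 h treatment with serially diluted compound in serum-free medium.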
Background: In an ELISA, binding on a coated surface is turned into a signal by an enzyme label.

In test [3] the target is Human KDR (residues 790-1356) (Homo sapiens (Human), UniProt P35968). Briefly: Human KDR kinase assay, HTRF KinEase (Example B-2). In kind it is biochemical. Put shortly: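 Ten compound concentrations (3% DMSO final) were pre-plated, then KDR (790-1356) with biotinylated peptide in Mg/Mn/DTT buffer was added; ATP at Km (4.0 μM) started a 40 min room-temperature reaction. Detection used Eu-TK antibody and SA-XL665 in EDTA buffer; activity normalized to DMSO and reference inhibitor, IC50 by logistic fit.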
Human KDR (residues 790-1356), sequence (P35968 790-1356): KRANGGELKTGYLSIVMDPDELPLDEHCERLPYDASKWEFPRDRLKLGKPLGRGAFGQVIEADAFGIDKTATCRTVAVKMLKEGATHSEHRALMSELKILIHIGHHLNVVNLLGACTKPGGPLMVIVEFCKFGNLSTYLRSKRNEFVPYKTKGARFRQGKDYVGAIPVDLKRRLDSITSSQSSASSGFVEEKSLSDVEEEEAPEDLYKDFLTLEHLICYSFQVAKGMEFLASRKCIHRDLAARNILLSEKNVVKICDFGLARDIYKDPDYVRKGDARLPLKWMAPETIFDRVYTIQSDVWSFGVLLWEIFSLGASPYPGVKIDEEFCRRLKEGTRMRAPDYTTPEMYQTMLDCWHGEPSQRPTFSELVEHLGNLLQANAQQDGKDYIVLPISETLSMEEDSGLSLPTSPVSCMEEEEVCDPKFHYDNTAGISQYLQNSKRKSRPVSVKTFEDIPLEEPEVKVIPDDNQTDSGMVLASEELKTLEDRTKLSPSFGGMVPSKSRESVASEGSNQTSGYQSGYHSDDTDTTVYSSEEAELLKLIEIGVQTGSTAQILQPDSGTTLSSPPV

Test [4] deals with Human MET (residues 956-1390) (Homo sapiens (Human), UniProt P08581). Briefly: Human Met kinase assay, HTRF KinEase (Example D-2). In kind it is biochemical. Particulars: read-out: c-Met IC50. In a few lines:
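MET kinase domain (956-1390), 0.1 ng/well, in buffer with 5 mM MgCl2, 1 mM DTT and 1 mM MnCl2, phosphorylated a biotinylated peptide at ATP Km for 40 min at RT; 10 concentrations, 3% DMSO final. EDTA-stopped HTRF read after 60 min; IC50 from a 4-parameter logistic fit.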

The mark [5] stands for this setting: protocol of Example C-2 (other compounds).
[6] abbreviates: protocol of Example B-2 (other compounds).
Where [7] appears, read: protocol of Example D-2 (other compounds).

SMILES strings stand for the structures. Where a name gives a salt, the structure may show the parent alone. Read-outs that look alike come from different tables or passages of the source.

Human MER (residues 528-999), sequence (Q12866 528-999): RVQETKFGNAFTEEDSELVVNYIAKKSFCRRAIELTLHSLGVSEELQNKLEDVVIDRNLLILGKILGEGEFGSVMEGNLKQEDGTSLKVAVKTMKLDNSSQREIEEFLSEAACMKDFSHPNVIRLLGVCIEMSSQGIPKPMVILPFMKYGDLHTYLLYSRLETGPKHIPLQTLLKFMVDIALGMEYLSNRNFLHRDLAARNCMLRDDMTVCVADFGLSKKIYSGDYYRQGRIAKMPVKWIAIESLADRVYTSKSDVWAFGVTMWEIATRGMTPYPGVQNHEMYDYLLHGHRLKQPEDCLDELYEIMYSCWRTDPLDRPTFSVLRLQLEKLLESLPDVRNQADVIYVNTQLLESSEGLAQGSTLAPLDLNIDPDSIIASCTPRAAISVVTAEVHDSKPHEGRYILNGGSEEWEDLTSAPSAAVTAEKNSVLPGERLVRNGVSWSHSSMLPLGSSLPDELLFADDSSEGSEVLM
Human MET (residues 956-1390), sequence (P08581 956-1390): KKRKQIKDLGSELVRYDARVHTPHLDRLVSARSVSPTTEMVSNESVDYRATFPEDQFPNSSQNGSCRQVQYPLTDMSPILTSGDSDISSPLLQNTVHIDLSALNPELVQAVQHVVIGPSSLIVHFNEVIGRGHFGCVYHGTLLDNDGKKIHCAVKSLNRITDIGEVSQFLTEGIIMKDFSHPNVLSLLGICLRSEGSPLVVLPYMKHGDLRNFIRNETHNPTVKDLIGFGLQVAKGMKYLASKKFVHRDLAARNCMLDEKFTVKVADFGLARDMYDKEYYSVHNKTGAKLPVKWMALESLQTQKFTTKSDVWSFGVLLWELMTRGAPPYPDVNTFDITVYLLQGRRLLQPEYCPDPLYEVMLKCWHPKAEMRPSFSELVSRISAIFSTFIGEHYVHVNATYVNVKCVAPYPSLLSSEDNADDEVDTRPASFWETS
Mer (phospho-Mer, MERTK-transfected 293A cells), sequence (Q12866 21-999): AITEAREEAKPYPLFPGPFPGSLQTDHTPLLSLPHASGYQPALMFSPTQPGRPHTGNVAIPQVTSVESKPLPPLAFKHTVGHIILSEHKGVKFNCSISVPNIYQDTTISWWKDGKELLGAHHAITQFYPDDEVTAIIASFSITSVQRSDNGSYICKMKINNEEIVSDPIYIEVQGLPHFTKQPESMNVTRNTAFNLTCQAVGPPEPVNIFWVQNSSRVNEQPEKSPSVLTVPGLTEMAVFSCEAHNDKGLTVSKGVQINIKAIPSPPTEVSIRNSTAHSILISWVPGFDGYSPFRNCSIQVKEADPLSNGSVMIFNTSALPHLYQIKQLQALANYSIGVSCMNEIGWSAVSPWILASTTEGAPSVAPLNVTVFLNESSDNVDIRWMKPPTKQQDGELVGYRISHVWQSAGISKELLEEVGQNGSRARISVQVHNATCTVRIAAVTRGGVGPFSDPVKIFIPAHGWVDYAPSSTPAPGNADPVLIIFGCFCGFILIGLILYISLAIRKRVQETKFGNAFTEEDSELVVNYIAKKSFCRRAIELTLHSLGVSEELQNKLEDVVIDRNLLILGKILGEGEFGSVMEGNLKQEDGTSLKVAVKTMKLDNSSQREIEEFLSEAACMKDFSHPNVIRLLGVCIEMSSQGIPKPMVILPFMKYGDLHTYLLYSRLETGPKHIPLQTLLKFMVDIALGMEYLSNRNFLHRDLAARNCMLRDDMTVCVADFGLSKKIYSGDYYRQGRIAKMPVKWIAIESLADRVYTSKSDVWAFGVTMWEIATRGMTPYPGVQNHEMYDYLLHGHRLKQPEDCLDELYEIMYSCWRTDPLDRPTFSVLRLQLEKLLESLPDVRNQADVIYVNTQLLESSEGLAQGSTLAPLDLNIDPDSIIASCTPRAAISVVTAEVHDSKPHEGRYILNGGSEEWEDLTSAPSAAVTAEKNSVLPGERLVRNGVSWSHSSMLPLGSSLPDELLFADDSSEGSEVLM

Broadly, the IC50 is the concentration needed to halve the response being measured. As to `Cc1ncc(C(=O)Nc2ccc(Oc3ccnc4cc(-c5cnn(C(F)F)c5)cnc34)cc2)c(O)c1-c1ccc(F)cc1` [Compound 611, N-[4-[[7-[1-(Difluoromethyl)pyrazol-4-yl]-1,5-naphthyridin-4-yl]oxy]phenyl]-5-(4-fluorophenyl)-4-hydroxy-6-methylpyridine-3-carboxamide], the IC50 in test [1] (protocol of Example C-2), in test [2], in test [3] (protocol of Example B-2) and in test [4] (protocol of Example D-2) was < 0.1 µM each time.
On to `CCn1cc(C(=O)Nc2ccc(Oc3ccnc4cc(OC)c(OC)nc34)cc2)c(=O)c(-c2ccc(F)cc2)c1` [Compound 167, N-[4-[(6,7-Dimethoxy-1,5-naphthyridin-4-yl)oxy]phenyl]-1-ethyl-5-(4-fluorophenyl)-4-oxopyridine-3-carboxamide], for which the IC50 is < 0.1 µM in test [1] (setting [5]), < 0.1 µM in test [2], 0.1 to 0.3 µM in test [3] (setting [6]) and < 0.1 µM in test [4] (setting [7]).
In the case of `CCn1cc(C(=O)Nc2ccc(Oc3ccnc4cc(OC)cnc34)cc2)c(=O)c(-c2ccc(F)cc2)c1` [Compound 169, 1-Ethyl-5-(4-fluorophenyl)-N-[4-[(7-methoxy-1,5-naphthyridin-4-yl)oxy]phenyl]-4-oxopyridine-3-carboxamide], the IC50 was < 0.1 µM in test [1] (setting [5]), < 0.1 µM in test [2], > 0.3 µM in test [3] (setting [6]) and < 0.1 µM in test [4] (setting [7]).
Consider `CCn1cc(C(=O)Nc2ccc(Oc3ccnc4cc(OC)cnc34)c(F)c2)c(=O)c(-c2ccc(F)cc2)c1` [Compound 170, 1-Ethyl-N-[3-fluoro-4-[(7-methoxy-1,5-naphthyridin-4-yl)oxy]phenyl]-5-(4-fluorophenyl)-4-oxopyridine-3-carboxamide], for which the IC50 is < 0.1 µM in test [1] (setting [5]), < 0.1 µM in test [2], > 0.3 µM in test [3] (setting [6]) and < 0.1 µM in test [4] (setting [7]).
On to `COc1cc2nccc(Oc3ccc(NC(=O)c4c(C)nc(C)c(-c5ccc(F)cc5)c4O)cc3)c2nc1OC` [Compound 173, N-[4-[(6,7-Dimethoxy-1,5-naphthyridin-4-yl)oxy]phenyl]-5-(4-fluorophenyl)-4-hydroxy-2,6-dimethylpyridine-3-carboxamide], for which the 50% inhibitory concentration (IC50) in test [1] (setting [5]), in test [2], in test [3] (setting [6]) and in test [4] (setting [7]) was < 0.1 µM throughout.
As for `COc1nc2c(Oc3ccc(NC(=O)c4cn(C(C)C)cc(-c5ccc(F)cc5)c4=O)cc3F)ccnc2cc1Br` [Compound 131, N-[4-[(7-Bromo-6-methoxy-1,5-naphthyridin-4-yl)oxy]-3-fluorophenyl]-5-(4-fluorophenyl)-4-oxo-1-propan-2-ylpyridine-3-carboxamide], the IC50 in test [1] (setting [5]) is < 0.1 µM; in test [2], < 0.1 µM; in test [3] (setting [6]) it was > 0.3 µM; in test [4] (setting [7]), < 0.1 µM.
For `COc1cnc2c(Oc3ccc(NC(=O)c4cn(C)c(OC)c(-c5ccc(F)cc5)c4=O)cc3F)ccnc2c1` [Compound 587, N-[3-Fluoro-4-[(7-methoxy-1,5-naphthyridin-4-yl)oxy]phenyl]-5-(4-fluorophenyl)-6-methoxy-1-methyl-4-oxopyridine-3-carboxamide], the half-inhibitory concentration (IC50) in test [1] (protocol of Example C-2) was < 0.1 µM; in test [2], < 0.1 µM; in test [3] (protocol of Example B-2), > 0.3 µM; in test [4] (protocol of Example D-2), < 0.1 µM.
For the compound `Cc1nc2c(Oc3ccc(NC(=O)c4cn(C(C)C)c(C)c(-c5ccc(F)cc5)c4=O)cc3)ccnc2cc1-c1cnn(C(F)F)c1` [Compound 612, N-[4-[[7-[1-(Difluoromethyl)pyrazol-4-yl]-6-methyl-1,5-naphthyridin-4-yl]oxy]phenyl]-5-(4-fluorophenyl)-6-methyl-4-oxo-1-propan-2-ylpyridine-3-carboxamide hydrochloride], the half-inhibitory concentration (IC50) is < 0.1 µM in test [1] (protocol of Example C-2), < 0.1 µM in test [2], > 0.3 µM in test [3] (protocol of Example B-2) and < 0.1 µM in test [4] (protocol of Example D-2).
As for `Cc1nc2c(Oc3ccc(NC(=O)c4cnc(C)c(-c5ccc(F)cc5)c4O)cc3F)ccnc2cc1-c1cccnc1` [Compound 618, N-[3-Fluoro-4-[(6-methyl-7-pyridin-3-yl-1,5-naphthyridin-4-yl)oxy]phenyl]-5-(4-fluorophenyl)-4-hydroxy-6-methylpyridine-3-carboxamide hydrochloride], the half-inhibitory concentration (IC50) is < 0.1 µM in test [1] (protocol of Example C-2), < 0.1 µM in test [2], 0.1 to 0.3 µM in test [3] (protocol of Example B-2) and < 0.1 µM in test [4] (protocol of Example D-2).
Regarding `COc1cnc2c(Oc3ccc(NC(=O)c4cn(OC)cc(-c5ccc(F)cc5)c4=O)cc3F)ccnc2c1` [Compound 128, N-[3-Fluoro-4-[(7-methoxy-1,5-naphthyridin-4-yl)oxy]phenyl]-5-(4-fluorophenyl)-1-methoxy-4-oxopyridine-3-carboxamide], the 50% inhibitory concentration (IC50) was < 0.1 µM in test [1] (setting [5]), < 0.1 µM in test [2], 0.1 to 0.3 µM in test [3] (setting [6]) and < 0.1 µM in test [4] (setting [7]).
For the compound `Cc1c(-c2ccc(F)cc2)c(=O)c(C(=O)Nc2ccc(Oc3ccnc4cc(F)cnc34)c(F)c2)cn1C(C)C` [Compound 162, N-[3-Fluoro-4-[(7-fluoro-1,5-naphthyridin-4-yl)oxy]phenyl]-5-(4-fluorophenyl)-6-methyl-4-oxo-1-propan-2-ylpyridine-3-carboxamide], the IC50 in test [1] (setting [5]) is 0.1 to 0.3 µM; in test [2], < 0.1 µM; in test [3] (setting [6]), > 0.3 µM; in test [4] (setting [7]), < 0.1 µM.
With `COc1cc2nccc(Oc3ccc(NC(=O)c4cn(C(C)C)c(C)c(-c5ccccc5)c4=O)cc3F)c2nc1OC` [Compound 29, N-[4-[(6,7-Dimethoxy-1,5-naphthyridin-4-yl)oxy]-3-fluorophenyl]-6-methyl-4-oxo-5-phenyl-1-propan-2-ylpyridine-3-carboxamide hydrochloride], the concentration for half-maximal inhibition (IC50) in test [1] (setting [5]), in test [2], in test [3] (setting [6]) and in test [4] (setting [7]) was < 0.1 µM each time.
Regarding `Cc1nc(C)c(-c2ccc(F)cc2)c(O)c1C(=O)Nc1ccc(Oc2ccnc3cc(C(C)C)cnc23)cc1` [Compound 598, 5-(4-Fluorophenyl)-4-hydroxy-2,6-dimethyl-N-[4-[(7-propan-2-yl-1,5-naphthyridin-4-yl)oxy]phenyl]pyridine-3-carboxamide], the IC50 in test [1] (protocol of Example C-2) was < 0.1 µM; in test [2], < 0.1 µM; in test [3] (protocol of Example B-2) it was 0.1 to 0.3 µM; in test [4] (protocol of Example D-2), < 0.1 µM.
Take `COc1cc2nccc(Oc3ccc(NC(=O)c4cnc(C)c(-c5ccc(F)cc5)c4O)cc3F)c2nc1OC` [Compound 28, N-[4-[(6,7-Dimethoxy-1,5-naphthyridin-4-yl)oxy]-3-fluorophenyl]-5-(4-fluorophenyl)-4-hydroxy-6-methylpyridine-3-carboxamide]: the IC50 in test [1] (setting [5]), in test [2], in test [3] (setting [6]) and in test [4] (setting [7]) was < 0.1 µM each time.
In the case of `Cc1ncc(C(=O)Nc2ccc(Oc3ccnc4cc(C(N)=O)cnc34)c(F)c2)c(O)c1-c1ccc(F)cc1` [Compound 577, 8-[2-Fluoro-4-[[5-(4-fluorophenyl)-4-hydroxy-6-methylpyridine-3-carbonyl]amino]phenoxy]-1,5-naphthyridine-3-carboxamide], the concentration for half-maximal inhibition (IC50) in test [1] (protocol of Example C-2) is < 0.1 µM; in test [2], 0.1 to 0.3 µM; in test [3] (protocol of Example B-2), < 0.1 µM; in test [4] (protocol of Example D-2), < 0.1 µM.
Regarding `COc1cnc2c(Oc3ccc(NC(=O)c4cn(C)c(C#N)c(-c5ccc(F)cc5)c4=O)cc3F)ccnc2c1` [Compound 586, 6-Cyano-N-[3-fluoro-4-[(7-methoxy-1,5-naphthyridin-4-yl)oxy]phenyl]-5-(4-fluorophenyl)-1-methyl-4-oxopyridine-3-carboxamide], the 50% inhibitory concentration (IC50) is < 0.1 µM in test [1] (protocol of Example C-2), < 0.1 µM in test [2], > 0.3 µM in test [3] (protocol of Example B-2) and < 0.1 µM in test [4] (protocol of Example D-2).
For `COc1cnc2c(Oc3ccc(NC(=O)c4cn(C(C)(C)C)c(C)c(-c5ccc(F)cc5)c4=O)cc3F)ccnc2c1` [Compound 166, 1-tert-Butyl-N-[3-fluoro-4-[(7-methoxy-1,5-naphthyridin-4-yl)oxy]phenyl]-5-(4-fluorophenyl)-6-methyl-4-oxopyridine-3-carboxamide], the IC50 was < 0.1 µM in test [1] (setting [5]), < 0.1 µM in test [2], > 0.3 µM in test [3] (setting [6]) and < 0.1 µM in test [4] (setting [7]).
With `COc1cc2nccc(Oc3ccc(NC(=O)c4cnc(C(C)(C)C)c(-c5ccc(F)cc5)c4O)cc3F)c2nc1OC` [Compound 155, 6-tert-Butyl-N-[4-[(6,7-dimethoxy-1,5-naphthyridin-4-yl)oxy]-3-fluorophenyl]-5-(4-fluorophenyl)-4-hydroxypyridine-3-carboxamide], the concentration for half-maximal inhibition (IC50) in test [1] (setting [5]) is < 0.1 µM; in test [2] it was < 0.1 µM; in test [3] (setting [6]), > 0.3 µM; in test [4] (setting [7]) it was < 0.1 µM.

These data come from patent US12371428B2 (Exelixis, Inc., priority 2019, dated 2025).
